Data published in article PMC11842588, “A first-in-class selective inhibitor of ERK1/2 and ERK5 overcomes drug resistance with a single-molecule strategy” (Signal Transduction and Targeted Therapy, 2025).

Experiments:
[1] = molecular target: T1, cSRC(h) (Homo sapiens, UniProt P12931); experiment: Kinase profiling; format: biochemical
T1 construct: purchased Eurofins Cerep SA (KinaseProfiler)
Description: (§1) 380 kinases inhibitory activities of SKLB-D18 were conducted by Eurofins Cerep SA. The result was illustrated by kinase tree (http://www.kinhub.org/kinmap/).

[2] = molecular target: T2, DMPK(h) (Homo sapiens, UniProt Q09013); experiment: Kinase profiling; format: biochemical
T2 construct: purchased Eurofins Cerep SA (KinaseProfiler)
Description: as §1

[3] = molecular target: T3, Hck(h) activated (Homo sapiens, UniProt P08631); experiment: Kinase profiling; format: biochemical
T3 construct: purchased Eurofins Cerep SA (KinaseProfiler)
T3 sequence (P08631 whole entry): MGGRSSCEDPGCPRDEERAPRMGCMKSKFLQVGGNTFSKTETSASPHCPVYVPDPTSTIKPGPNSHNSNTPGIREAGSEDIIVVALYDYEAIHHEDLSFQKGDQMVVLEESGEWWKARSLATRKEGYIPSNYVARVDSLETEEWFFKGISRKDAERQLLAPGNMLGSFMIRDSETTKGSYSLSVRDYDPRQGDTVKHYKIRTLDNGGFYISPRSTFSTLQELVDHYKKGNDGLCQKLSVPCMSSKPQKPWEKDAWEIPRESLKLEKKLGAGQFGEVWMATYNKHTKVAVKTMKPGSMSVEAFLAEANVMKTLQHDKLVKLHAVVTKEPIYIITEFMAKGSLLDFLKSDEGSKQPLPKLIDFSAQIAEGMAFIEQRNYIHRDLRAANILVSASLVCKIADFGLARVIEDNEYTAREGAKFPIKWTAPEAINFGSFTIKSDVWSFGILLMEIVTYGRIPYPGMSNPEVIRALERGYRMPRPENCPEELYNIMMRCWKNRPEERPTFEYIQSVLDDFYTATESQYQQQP
Description: as §1

[4] = molecular target: T4, TAO3(h) (Homo sapiens, UniProt Q9H2K8); experiment: Kinase profiling; format: biochemical
T4 construct: purchased Eurofins Cerep SA (KinaseProfiler)
T4 sequence (Q9H2K8 whole entry): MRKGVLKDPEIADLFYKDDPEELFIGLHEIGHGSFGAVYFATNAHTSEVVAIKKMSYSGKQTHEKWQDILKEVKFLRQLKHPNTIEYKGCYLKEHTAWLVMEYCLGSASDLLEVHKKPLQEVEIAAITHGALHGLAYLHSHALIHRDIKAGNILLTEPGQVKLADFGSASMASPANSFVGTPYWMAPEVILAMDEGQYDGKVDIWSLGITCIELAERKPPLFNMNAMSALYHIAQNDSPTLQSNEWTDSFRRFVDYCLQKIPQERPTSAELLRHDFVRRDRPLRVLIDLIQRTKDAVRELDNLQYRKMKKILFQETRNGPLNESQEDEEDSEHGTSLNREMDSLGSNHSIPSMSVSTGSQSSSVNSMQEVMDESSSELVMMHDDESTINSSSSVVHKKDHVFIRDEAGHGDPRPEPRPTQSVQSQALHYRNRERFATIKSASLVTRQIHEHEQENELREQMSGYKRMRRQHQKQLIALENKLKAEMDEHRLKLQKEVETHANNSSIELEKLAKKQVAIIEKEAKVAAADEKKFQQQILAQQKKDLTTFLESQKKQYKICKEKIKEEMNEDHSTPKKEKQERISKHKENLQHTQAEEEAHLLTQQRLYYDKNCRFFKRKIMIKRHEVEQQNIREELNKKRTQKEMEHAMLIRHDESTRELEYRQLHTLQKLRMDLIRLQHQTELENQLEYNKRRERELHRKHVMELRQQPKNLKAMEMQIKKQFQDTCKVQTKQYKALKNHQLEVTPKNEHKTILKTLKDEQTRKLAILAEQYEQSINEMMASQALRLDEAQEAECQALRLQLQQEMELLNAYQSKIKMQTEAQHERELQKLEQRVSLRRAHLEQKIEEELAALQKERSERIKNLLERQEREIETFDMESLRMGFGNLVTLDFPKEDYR
Description: as §1

[5] = molecular target: T5, IRAK4(h) (Homo sapiens, UniProt Q9NWZ3); experiment: Kinase profiling; format: biochemical
T5 construct: purchased Eurofins Cerep SA (KinaseProfiler)
Description: as §1

[6] = molecular target: T6, LIMK1(h) (Homo sapiens, UniProt P53667); experiment: Kinase profiling; format: biochemical
T6 construct: purchased Eurofins Cerep SA (KinaseProfiler)
T6 sequence (P53667 whole entry): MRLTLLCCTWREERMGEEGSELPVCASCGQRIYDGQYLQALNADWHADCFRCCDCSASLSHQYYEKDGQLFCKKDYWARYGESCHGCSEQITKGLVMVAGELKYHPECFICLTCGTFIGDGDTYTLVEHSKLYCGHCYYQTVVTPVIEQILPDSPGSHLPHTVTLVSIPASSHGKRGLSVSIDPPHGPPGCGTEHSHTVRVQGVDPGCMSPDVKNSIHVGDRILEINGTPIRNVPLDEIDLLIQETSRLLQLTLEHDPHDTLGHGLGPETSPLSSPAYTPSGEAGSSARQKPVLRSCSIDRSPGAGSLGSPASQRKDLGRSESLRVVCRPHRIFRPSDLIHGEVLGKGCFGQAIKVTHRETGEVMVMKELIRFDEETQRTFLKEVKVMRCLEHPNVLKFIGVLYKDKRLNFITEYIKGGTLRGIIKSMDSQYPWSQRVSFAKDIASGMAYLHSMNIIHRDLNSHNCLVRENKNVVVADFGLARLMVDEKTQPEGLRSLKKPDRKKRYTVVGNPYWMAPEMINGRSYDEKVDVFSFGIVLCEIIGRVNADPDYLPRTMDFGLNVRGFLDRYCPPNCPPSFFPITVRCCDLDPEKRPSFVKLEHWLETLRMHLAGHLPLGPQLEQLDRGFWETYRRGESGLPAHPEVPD
Description: as §1

[7] = molecular target: T7, c-RAF(h) (Homo sapiens, UniProt P04049); experiment: Kinase profiling; format: biochemical
T7 construct: purchased Eurofins Cerep SA (KinaseProfiler)
Description: as §1

[8] = molecular target: T8, PDK1(h) (Homo sapiens, UniProt O15530); experiment: Kinase profiling; format: biochemical
T8 construct: purchased Eurofins Cerep SA (KinaseProfiler)
Description: as §1

[9] = molecular target: T9, WNK1(h) (Homo sapiens, UniProt Q9H4A3); experiment: Kinase profiling; format: biochemical
T9 construct: purchased Eurofins Cerep SA (KinaseProfiler)
Description: as §1

[10] = molecular target: T10, MOK(h) (Homo sapiens, UniProt Q9UQ07); experiment: Kinase profiling; format: biochemical
T10 construct: purchased Eurofins Cerep SA (KinaseProfiler)
T10 sequence (Q9UQ07 whole entry): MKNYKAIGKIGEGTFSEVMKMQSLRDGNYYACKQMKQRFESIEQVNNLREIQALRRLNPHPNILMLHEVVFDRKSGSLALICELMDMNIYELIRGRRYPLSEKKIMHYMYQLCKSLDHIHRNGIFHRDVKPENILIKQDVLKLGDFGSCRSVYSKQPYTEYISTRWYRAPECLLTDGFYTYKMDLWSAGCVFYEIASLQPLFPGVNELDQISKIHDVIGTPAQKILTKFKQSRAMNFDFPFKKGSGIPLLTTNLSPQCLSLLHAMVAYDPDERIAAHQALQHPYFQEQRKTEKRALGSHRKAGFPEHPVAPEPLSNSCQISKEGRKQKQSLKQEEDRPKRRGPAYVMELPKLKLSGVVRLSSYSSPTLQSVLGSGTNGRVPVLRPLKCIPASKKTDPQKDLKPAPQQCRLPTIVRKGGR
Description: as §1

[11] = molecular target: T11, DYRK1A(h) (Homo sapiens, UniProt Q13627); experiment: Kinase profiling; format: biochemical
T11 construct: purchased Eurofins Cerep SA (KinaseProfiler)
Description: as §1

[12] = molecular target: T12, MAK(h) (Homo sapiens, UniProt P20794); experiment: Kinase profiling; format: biochemical
T12 construct: purchased Eurofins Cerep SA (KinaseProfiler)
Description: as §1

[13] = molecular target: T13, BTK(h) (Homo sapiens, UniProt Q06187); experiment: Kinase profiling; format: biochemical
T13 construct: purchased Eurofins Cerep SA (KinaseProfiler)
Description: as §1

[14] = molecular target: T14, PI3KC2a(h) (Homo sapiens, UniProt O00443); experiment: Kinase profiling; format: biochemical
T14 construct: purchased Eurofins Cerep SA (KinaseProfiler)
Description: as §1

[15] = molecular target: T15, SIK3(h) (Homo sapiens, UniProt Q9Y2K2); experiment: Kinase profiling; format: biochemical
T15 construct: purchased Eurofins Cerep SA (KinaseProfiler)
Description: as §1

[16] = molecular target: T16, MKK6(h) (Homo sapiens, UniProt P52564); experiment: Kinase profiling; format: biochemical
T16 construct: purchased Eurofins Cerep SA (KinaseProfiler)
Description: as §1

[17] = molecular target: T17, ACK1(h) (Homo sapiens, UniProt Q07912); experiment: Kinase profiling; format: biochemical
T17 construct: purchased Eurofins Cerep SA (KinaseProfiler)
T17 sequence (Q07912 whole entry): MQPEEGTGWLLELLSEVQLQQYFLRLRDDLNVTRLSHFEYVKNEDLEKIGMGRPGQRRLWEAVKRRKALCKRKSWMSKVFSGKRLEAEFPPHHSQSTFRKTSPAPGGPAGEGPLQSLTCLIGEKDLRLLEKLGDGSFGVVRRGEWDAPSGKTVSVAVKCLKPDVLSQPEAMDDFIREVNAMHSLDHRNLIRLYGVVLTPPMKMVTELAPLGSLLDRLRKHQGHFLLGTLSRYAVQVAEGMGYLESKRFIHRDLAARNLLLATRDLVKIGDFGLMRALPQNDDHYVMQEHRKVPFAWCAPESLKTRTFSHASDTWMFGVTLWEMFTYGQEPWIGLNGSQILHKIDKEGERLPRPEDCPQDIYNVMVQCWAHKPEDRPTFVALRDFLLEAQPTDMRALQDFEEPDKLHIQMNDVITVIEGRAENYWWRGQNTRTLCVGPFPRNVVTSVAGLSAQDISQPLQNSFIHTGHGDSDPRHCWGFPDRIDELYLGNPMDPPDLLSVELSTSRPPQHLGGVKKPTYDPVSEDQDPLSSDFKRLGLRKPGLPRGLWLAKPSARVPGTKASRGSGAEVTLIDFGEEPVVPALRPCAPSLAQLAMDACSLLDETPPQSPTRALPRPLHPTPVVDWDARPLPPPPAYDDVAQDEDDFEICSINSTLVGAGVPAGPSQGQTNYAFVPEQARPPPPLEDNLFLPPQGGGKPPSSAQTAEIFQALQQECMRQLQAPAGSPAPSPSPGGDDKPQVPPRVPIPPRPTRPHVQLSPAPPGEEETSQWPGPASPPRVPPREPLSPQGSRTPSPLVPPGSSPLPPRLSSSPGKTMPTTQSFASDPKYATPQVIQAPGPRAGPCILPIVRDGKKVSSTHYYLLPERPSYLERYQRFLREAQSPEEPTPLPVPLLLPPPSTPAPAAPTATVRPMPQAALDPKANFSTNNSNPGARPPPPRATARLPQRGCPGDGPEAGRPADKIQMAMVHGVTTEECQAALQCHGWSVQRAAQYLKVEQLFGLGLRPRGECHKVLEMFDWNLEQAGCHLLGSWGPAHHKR
Description: as §1

[18] = molecular target: T18, TTBK2(h) (Homo sapiens, UniProt Q6IQ55); experiment: Kinase profiling; format: biochemical
T18 construct: purchased Eurofins Cerep SA (KinaseProfiler)
Description: as §1

[19] = molecular target: T19, BMPR2(h) (Homo sapiens, UniProt Q13873); experiment: Kinase profiling; format: biochemical
T19 construct: purchased Eurofins Cerep SA (KinaseProfiler)
Description: as §1

[20] = molecular target: T20, SAPK3(h) (Homo sapiens, UniProt P53778); experiment: Kinase profiling; format: biochemical
T20 construct: purchased Eurofins Cerep SA (KinaseProfiler)
Description: as §1

[21] = molecular target: T21, CK2α2(h) (Homo sapiens, UniProt P19784); experiment: Kinase profiling; format: biochemical
T21 construct: purchased Eurofins Cerep SA (KinaseProfiler)
Description: as §1

[22] = molecular target: T22, CDK17/cyclinY(h) (Homo sapiens, UniProt Q00537); experiment: Kinase profiling; format: biochemical
T22 construct: purchased Eurofins Cerep SA (KinaseProfiler)
T22 sequence (Q00537 whole entry): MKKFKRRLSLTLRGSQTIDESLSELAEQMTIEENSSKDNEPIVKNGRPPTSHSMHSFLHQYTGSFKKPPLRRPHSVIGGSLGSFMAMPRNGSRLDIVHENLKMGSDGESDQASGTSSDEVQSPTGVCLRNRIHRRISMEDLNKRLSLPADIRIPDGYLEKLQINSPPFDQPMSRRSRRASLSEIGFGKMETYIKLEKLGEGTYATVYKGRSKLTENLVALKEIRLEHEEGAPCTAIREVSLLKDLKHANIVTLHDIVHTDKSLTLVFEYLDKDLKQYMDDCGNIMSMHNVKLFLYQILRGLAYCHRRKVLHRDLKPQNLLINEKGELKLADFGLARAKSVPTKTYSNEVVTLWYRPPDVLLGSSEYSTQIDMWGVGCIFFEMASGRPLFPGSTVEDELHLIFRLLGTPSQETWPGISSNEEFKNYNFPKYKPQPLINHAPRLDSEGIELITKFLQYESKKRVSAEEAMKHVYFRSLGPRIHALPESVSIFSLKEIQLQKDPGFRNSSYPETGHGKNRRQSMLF
T22 sequence (Q8ND76 whole entry partner): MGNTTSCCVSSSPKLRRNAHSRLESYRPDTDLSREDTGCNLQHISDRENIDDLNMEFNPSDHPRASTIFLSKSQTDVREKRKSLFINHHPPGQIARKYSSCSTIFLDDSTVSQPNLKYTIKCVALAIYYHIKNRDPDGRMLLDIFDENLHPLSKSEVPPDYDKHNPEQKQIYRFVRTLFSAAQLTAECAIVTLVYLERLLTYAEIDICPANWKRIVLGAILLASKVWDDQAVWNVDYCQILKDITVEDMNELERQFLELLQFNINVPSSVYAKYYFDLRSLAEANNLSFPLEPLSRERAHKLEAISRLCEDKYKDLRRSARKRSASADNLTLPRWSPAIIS
Description: as §1

[23] = molecular target: T23, CaMKK1(h) (Homo sapiens, UniProt Q8N5S9); experiment: Kinase profiling; format: biochemical
T23 construct: purchased Eurofins Cerep SA (KinaseProfiler)
Description: as §1

[24] = molecular target: T24, PKCβI(h) (Homo sapiens, UniProt P05771); experiment: Kinase profiling; format: biochemical
T24 construct: purchased Eurofins Cerep SA (KinaseProfiler)
Description: as §1

[25] = molecular target: T25, BRK(h) (Homo sapiens, UniProt Q13882); experiment: Kinase profiling; format: biochemical
T25 construct: purchased Eurofins Cerep SA (KinaseProfiler)
Description: as §1

[26] = molecular target: T26, CDK16/cyclinY(h) (Homo sapiens, UniProt Q00536); experiment: Kinase profiling; format: biochemical
T26 construct: purchased Eurofins Cerep SA (KinaseProfiler)
T26 sequence (Q00536 whole entry): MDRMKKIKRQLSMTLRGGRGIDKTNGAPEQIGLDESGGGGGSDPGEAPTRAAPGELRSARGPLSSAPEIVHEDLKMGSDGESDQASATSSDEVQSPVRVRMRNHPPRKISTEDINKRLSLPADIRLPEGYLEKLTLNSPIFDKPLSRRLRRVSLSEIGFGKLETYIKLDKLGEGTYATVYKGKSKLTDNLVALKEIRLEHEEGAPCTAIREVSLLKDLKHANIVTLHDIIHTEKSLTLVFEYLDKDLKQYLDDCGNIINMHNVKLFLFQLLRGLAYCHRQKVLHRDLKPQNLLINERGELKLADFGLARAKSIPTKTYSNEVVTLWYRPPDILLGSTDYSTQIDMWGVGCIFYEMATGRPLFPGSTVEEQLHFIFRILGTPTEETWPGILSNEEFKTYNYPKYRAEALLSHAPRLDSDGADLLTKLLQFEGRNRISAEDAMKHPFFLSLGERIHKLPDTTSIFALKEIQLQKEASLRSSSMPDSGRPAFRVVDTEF
T26 sequence (Q8ND76 whole entry partner): as the sequence (Q8ND76 whole entry partner) above
Description: as §1

[27] = molecular target: T27, CLK1(h) (Homo sapiens, UniProt P49759); experiment: Kinase profiling; format: biochemical
T27 construct: purchased Eurofins Cerep SA (KinaseProfiler)
Description: as §1

[28] = tested on: MDA-MB-231 xenograft; experiment: MDA-MB-231 xenograft tumor growth inhibition; format: in vivo, nude mice (BALB/c-nu); conditions: 50 mg/kg (each drug), intragastric once daily, 16 days, by tumor weight
Description: All procedures were performed in accordance with the Laboratory Animals Welfare Act, the Guide for the Care and Use of Laboratory Animals and the Guidelines and Policies. The rodent experiment was approved by IACUC (Institutional Animal Care and Use Committee) in the Experimental Animal Ethics Committee of West China Hospital (Approval No. 2021672A). 48 female nude mice (BALB/c-nu, 5 weeks, 15–18 g, purchased from Beijing HFK Bio-Technology Co., LTD) were acclimatized for one week in an SPF-grade animal facility (ventilated, 20–25 °C, 50–60% humidity). […] When the tumor volume reached approximately 100 mm^3 (V = L × W^2/2), the mice were randomly divided into six groups (n = 8 per group): (1) Control group (normal saline); (2) 25 mg/kg SKLB-D18-treated group; (3) 50 mg/kg SKLB-D18-treated group; (4) 50 mg/kg BVD-523-treated group; (5) 50 mg/kg XMD8-92-treated group; (6) BVD-523 (50 mg/kg) and XMD8-92 (50 mg/kg) combined treatment group. Drugs were freshly prepared with 5% DMSO, 10% Solutol HS-15, and 85% normal saline on the day of administration. Intragastric administration occurred once daily at the same time for 16 consecutive days. And the body weight and tumor volume of mice were measured every three days. After the administration period, all nude mice were euthanized by cervical dislocation the next day. Tumors and vital organs (heart, liver, spleen, lung, kidney) were dissected, and tumors were weighed, then immediately fixed in 4% paraformaldehyde or stored in −80 °C.

[29] = tested on: MEK1/2 and MEK5; experiment: Immunoblotting of upstream MEK activity; format: cell-based; conditions: up to 5 μM, 24 h
Description: Then, the cells were washed twice with PBS and stimulated with cell lysis buffer. After 13,000 rpm centrifugation for 20 min, an enhanced bicinchoninic acid (BCA) protein assay kit was (Beyotime Biotechnology, Jiangsu, China) used to quantify the protein level of the supernatural. […] Furthermore, membranes were blocked with 5% skim milk. The membranes were incubated by the corresponding primary antibodies. After being washed twice with TBST solution, the membranes were incubated with horseradish peroxidase (HRP)-conjugated secondary antibodies and visualized by employing ECL ([…]) as the HRP substrate.

CN(C)Cc1cccc(Nc2ncc(Cl)c(-c3csc(C(=O)NN4CCOCC4)c3)n2)c1 [SKLB-D18, 4-(5-chloro-2-((3-((dimethylamino)methyl)phenyl)amino)pyrimidin-4-yl)-N-morpholinothiophene-2-carboxamide]
inhibition at 1 µM [1]: 55% | inhibition at 1 µM [2]: 8% | inhibition at 1 µM [3]: 32% | inhibition at 1 µM [4]: 36% | inhibition at 1 µM [5]: 47% | inhibition at 1 µM [6]: 20% | inhibition at 1 µM [7]: 65% | inhibition at 1 µM [8]: 42% | inhibition at 1 µM [9]: 12% | inhibition at 1 µM [10]: 31% | inhibition at 1 µM [11]: 13% | inhibition at 1 µM [12]: 46% | inhibition at 1 µM [13]: 8% | inhibition at 1 µM [14]: 1% | inhibition at 1 µM [15]: 22% | inhibition at 1 µM [16]: 5% | inhibition at 1 µM [17]: 14% | inhibition at 1 µM [18]: 0% | inhibition at 1 µM [19]: 21% | inhibition at 1 µM [20]: 25% | inhibition at 1 µM [21]: 65% | inhibition at 1 µM [22]: 57% | inhibition at 1 µM [23]: 12% | inhibition at 1 µM [24]: 12% | inhibition at 1 µM [25]: 32% | inhibition at 1 µM [26]: 66% | inhibition at 1 µM [27]: 17% | tumor inhibition rate [28]: 79.88% | changes in the activity of upstream MEK1/2 and MEK5 [29]: did not cause any changes
